Source: ChEMBL document CHEMBL1201862, “PubChem BioAssay data set” (2004)
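In this assay, cells in 96-well plates receive the compound at five concentrations for 48 hours. Endpoints are linearly interpolated between the surrounding concentrations. GI50 is the concentration that inhibits growth by half.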 Calls of active or inactive are those of the source. Rule as the data show it: active = GI50 up to about 1.1 µM and inactive = higher.

What was measured:
Assay in all cases: NCI tumour cell line growth inhibition, 48 h
OVCAR-5 = system: OVCAR-5
SF-268 = system: SF-268
TK-10 = system: TK-10
M14 = system: M14
RXF 393 = system: RXF 393
A498 = system: A498
NCI-H522 = system: NCI-H522
MDA-N = system: MDA-N
HT-29 = system: HT-29
A549 = system: A549
OVCAR-3 = system: OVCAR-3
Malme-3M = system: Malme-3M
MOLT-4 = system: MOLT-4
SN12C = system: SN12C
SK-MEL-2 = system: SK-MEL-2
UACC-257 = system: UACC-257
CAKI-1 = system: CAKI-1
OVCAR-4 = system: OVCAR-4
NCI-H226 = system: NCI-H226
ACHN = system: ACHN

Measured: GI50

C=C(CN(CC)CC)C1(c2ccccc2)CC2(CCCC2)C(=O)O1 (centres undefined)
inactive: OVCAR-5 > 100 µM | SF-268 > 100 µM | TK-10 > 100 µM | M14 45.5 µM | RXF 393 > 100 µM | A498 > 100 µM | NCI-H522 35 µM | MDA-N > 100 µM | HT-29 24.2 µM | A549 > 100 µM | OVCAR-3 82 µM | Malme-3M > 100 µM | MOLT-4 53.1 µM | SN12C > 100 µM | SK-MEL-2 > 100 µM | UACC-257 34.4 µM | CAKI-1 > 100 µM | OVCAR-4 > 100 µM | NCI-H226 48 µM | ACHN > 100 µM

OCCCCCNc1cc(O)nc(O)n1
inactive: OVCAR-5 > 100 µM | SF-268 > 100 µM | TK-10 > 100 µM | M14 > 100 µM | RXF 393 > 100 µM | A498 > 100 µM | NCI-H522 > 100 µM | MDA-N > 100 µM | HT-29 > 100 µM | A549 > 100 µM | OVCAR-3 > 100 µM | Malme-3M > 100 µM | MOLT-4 > 100 µM | SN12C > 100 µM | SK-MEL-2 > 100 µM | UACC-257 > 100 µM | CAKI-1 > 100 µM | OVCAR-4 > 100 µM | NCI-H226 > 100 µM | ACHN > 100 µM

COc1ccc(/C=c2/[nH]c(=O)/c(=C\c3ccc(OCc4ccccc4)cn3)[nH]c2=O)cc1
inactive: OVCAR-5 > 100 µM | SF-268 41.2 µM | TK-10 71.9 µM | M14 62.8 µM | RXF 393 23.2 µM | A498 33 µM | NCI-H522 71.4 µM | MDA-N 19.8 µM | HT-29 50.5 µM | A549 50.2 µM | OVCAR-3 > 100 µM | Malme-3M > 100 µM | MOLT-4 43.6 µM | SN12C > 100 µM | SK-MEL-2 51.8 µM | UACC-257 > 100 µM | CAKI-1 > 100 µM | OVCAR-4 > 100 µM | NCI-H226 67.9 µM | ACHN > 100 µM

NC(=O)NCCSC1CCCCC1O (centres undefined)
inactive: OVCAR-5 > 100 µM | SF-268 > 100 µM | TK-10 > 100 µM | M14 > 100 µM | RXF 393 > 100 µM | A498 > 100 µM | NCI-H522 > 100 µM | MDA-N > 100 µM | HT-29 > 100 µM | A549 > 100 µM | OVCAR-3 > 100 µM | Malme-3M > 100 µM | MOLT-4 26.2 µM | SN12C > 100 µM | SK-MEL-2 > 100 µM | UACC-257 > 100 µM | CAKI-1 > 100 µM | OVCAR-4 > 100 µM | NCI-H226 > 100 µM | ACHN > 100 µM

O=C(O)CSCC(=O)c1ccccc1
inactive: OVCAR-5 > 100 µM | SF-268 > 100 µM | TK-10 > 100 µM | M14 > 100 µM | RXF 393 > 100 µM | A498 > 100 µM | NCI-H522 > 100 µM | MDA-N > 100 µM | HT-29 > 100 µM | A549 > 100 µM | OVCAR-3 > 100 µM | Malme-3M > 100 µM | MOLT-4 > 100 µM | SN12C > 100 µM | SK-MEL-2 > 100 µM | UACC-257 > 100 µM | CAKI-1 > 100 µM | OVCAR-4 > 100 µM | NCI-H226 > 100 µM | ACHN > 100 µM

NNC(=O)CNC(=O)CSc1nnc(COc2ccc(Cl)cc2)n1-c1ccccc1
inactive: OVCAR-5 > 100 µM | SF-268 > 100 µM | TK-10 > 100 µM | M14 > 100 µM | RXF 393 > 100 µM | A498 > 100 µM | NCI-H522 41.8 µM | MDA-N > 100 µM | HT-29 > 100 µM | A549 > 100 µM | OVCAR-3 > 100 µM | Malme-3M > 100 µM | MOLT-4 > 100 µM | SN12C > 100 µM | SK-MEL-2 > 100 µM | UACC-257 > 100 µM | CAKI-1 > 100 µM | OVCAR-4 > 100 µM | NCI-H226 > 100 µM | ACHN > 100 µM

CCCC(O)c1cn(C(NC(=O)c2ccccc2)P(=O)(OCC)OCC)nn1 (centres undefined)
inactive: SF-268 > 100 µM | TK-10 > 100 µM | M14 > 100 µM | RXF 393 > 100 µM | A498 > 100 µM | NCI-H522 > 100 µM | MDA-N > 100 µM | HT-29 > 100 µM | A549 > 100 µM | OVCAR-3 > 100 µM | Malme-3M > 100 µM | MOLT-4 > 100 µM | SN12C > 100 µM | SK-MEL-2 > 100 µM | UACC-257 > 100 µM | CAKI-1 > 100 µM | OVCAR-4 > 100 µM | NCI-H226 > 100 µM | ACHN > 100 µM

COC(=O)c1cc(Br)c(C(=O)C(Cl)(Cl)Cl)[nH]1
inactive: OVCAR-5 > 100 µM | SF-268 > 100 µM | TK-10 > 100 µM | M14 > 100 µM | RXF 393 > 100 µM | A498 > 100 µM | NCI-H522 > 100 µM | MDA-N > 100 µM | HT-29 > 100 µM | A549 > 100 µM | OVCAR-3 > 100 µM | Malme-3M > 100 µM | MOLT-4 > 100 µM | SN12C > 100 µM | SK-MEL-2 > 100 µM | UACC-257 > 100 µM | CAKI-1 > 100 µM | OVCAR-4 > 100 µM | NCI-H226 > 100 µM | ACHN > 100 µM

C[C@]12CC[C@H](O)CC1=CC[C@@H]1[C@@H]2CC[C@]2(C)c3nc(Cl)ccc3C[C@@H]12
inactive: OVCAR-5 > 80.9 µM | SF-268 26.7 µM | TK-10 > 56.8 µM | M14 > 59.4 µM | RXF 393 37.9 µM | A498 > 100 µM | NCI-H522 49.8 µM | MDA-N 12.2 µM | HT-29 10.9 µM | A549 25 µM | OVCAR-3 27.3 µM | Malme-3M 53 µM | MOLT-4 8.45 µM | SN12C 44.8 µM | SK-MEL-2 > 100 µM | UACC-257 > 100 µM | CAKI-1 > 100 µM | OVCAR-4 > 53.7 µM | NCI-H226 > 100 µM | ACHN 15.6 µM

COc1cc2c3c(c1OC)-c1cc4c(cc1CC3(C#N)N(C(=O)c1ccccc1)CC2)OCO4 (centres undefined)
inactive: OVCAR-5 > 56.2 µM | SF-268 31.6 µM | TK-10 36 µM | M14 54.2 µM | RXF 393 8.73 µM | A498 41.1 µM | NCI-H522 28.2 µM | MDA-N > 100 µM | HT-29 > 100 µM | A549 37.5 µM | OVCAR-3 40.5 µM | Malme-3M 35.3 µM | MOLT-4 68.4 µM | SN12C 50.7 µM | SK-MEL-2 46.6 µM | UACC-257 60.4 µM | CAKI-1 37.9 µM | OVCAR-4 15.3 µM | NCI-H226 37.8 µM | ACHN 40.4 µM

COc1cc(/C=C/C(=N\NC(=S)NN)c2sc(NNC(C)=O)nc2C)ccc1O
inactive: OVCAR-5 > 100 µM | SF-268 > 100 µM | TK-10 > 100 µM | M14 > 100 µM | RXF 393 > 100 µM | A498 > 100 µM | NCI-H522 > 100 µM | MDA-N > 100 µM | HT-29 > 100 µM | A549 > 100 µM | OVCAR-3 > 100 µM | Malme-3M > 100 µM | MOLT-4 > 100 µM | SN12C > 100 µM | SK-MEL-2 > 100 µM | UACC-257 > 100 µM | CAKI-1 > 100 µM | OVCAR-4 > 100 µM | NCI-H226 > 100 µM | ACHN > 100 µM

Fc1ccc(C(OCCN2CCN(CCCCl)CC2)c2ccc(F)cc2)cc1
inactive: OVCAR-5 23.1 µM | SF-268 24.5 µM | TK-10 36.7 µM | M14 18.9 µM | RXF 393 23.7 µM | A498 20.9 µM | NCI-H522 18.7 µM | MDA-N 20.7 µM | HT-29 17 µM | A549 35.5 µM | OVCAR-3 25.8 µM | Malme-3M 17 µM | MOLT-4 19.9 µM | SN12C 25.3 µM | SK-MEL-2 24.2 µM | UACC-257 21 µM | CAKI-1 31 µM | OVCAR-4 24.9 µM | NCI-H226 20.5 µM | ACHN 46 µM

Cn1c(-c2cccs2)cc(-c2cccs2)c1-c1cccs1
inactive: OVCAR-5 > 100 µM | SF-268 > 81.8 µM | TK-10 > 100 µM | M14 > 79.8 µM | RXF 393 54.2 µM | A498 > 100 µM | NCI-H522 21.3 µM | MDA-N 55.2 µM | HT-29 > 100 µM | A549 > 96.6 µM | OVCAR-3 43.8 µM | Malme-3M > 100 µM | MOLT-4 38.5 µM | SN12C > 100 µM | SK-MEL-2 44 µM | UACC-257 16.5 µM | CAKI-1 > 100 µM | OVCAR-4 39.1 µM | NCI-H226 > 100 µM | ACHN 75 µM

CCc1nc(N)nc(N)c1-c1ccc(N2CCNCC2)c([N+](=O)[O-])c1
inactive: OVCAR-5 30.3 µM | SF-268 9.29 µM | TK-10 > 100 µM | M14 7.08 µM | RXF 393 24.5 µM | A498 39.7 µM | NCI-H522 24.4 µM | MDA-N 4.85 µM | HT-29 4.47 µM | A549 3.09 µM | OVCAR-3 35.3 µM | Malme-3M 15.5 µM | MOLT-4 5.65 µM | SN12C 22 µM | SK-MEL-2 36.9 µM | UACC-257 13.9 µM | CAKI-1 64.3 µM | OVCAR-4 32.7 µM | NCI-H226 65.9 µM | ACHN 17.9 µM
